# Laboratory results as given in patent US10888588B2, “Directed cardiomyocyte differentiation and ventricular specification of stem cells” (ICAHN SCHOOL OF MEDICINE AT MOUNT SINAI, priority 2013, dated 2021).
# Experiments:
# [1] = test system: hESC-VCMs; experiment: Patch-clamp AP recording and confocal Ca2+ imaging of hESC-VCMs; assay type: cell-based, human
# Procedure: The electrophysiological experiments disclosed in the Examples were performed using the whole-cell patch-clamp technique as previously described.^65-67 To profile chamber-specific subtypes of the hPSC-CMs, action potentials of the myocytes were randomly probed at 37° C. with the patch-clamp technique using an EPC-10 amplifier and Pulse software (Heka Elektronik, Germany), with the current-clamp mode (0.1-0.5 nA for 1-5 ms) under the whole-cell configuration applied. The hPSC-CMs were categorized into nodal-, atrial- or ventricular-like, as previously described.^62,65,66 Voltage-clamp recordings of ionic currents were performed using an automated parallel patch-clamp system (PatchXpress 7000A, Molecular Devices) using standard electrophysiological and pharmacological protocols for isolating the ionic component of interest.
# Intracellular Ca^2+ ([Ca^2+]i) transients were imaged by a spinning disc laser confocal microscope (PerkinElmer) on hPSC-CMs loaded with 1.5 μM X-Rhod-1 (Invitrogen) as previously described^66. After dye loading, experiments were performed at 37° C. in Tyrode's solution containing: 140 mM NaCl, 5 mM KCl, 1 mM MgCl2, 1.25 mM CaCl2, 10 mM HEPES and 10 mM D-glucose at pH 7.4. […] The amplitudes of E[Ca^2+]i are presented as the background corrected pseudo ratio (ΔF/F)=(F−Fbase)/(Fbase−B) where Fbase and F is the measured fluorescence intensity before and after stimulation, respectively, and B is the average background signal from areas adjacent to the targeted cell. The transients rise (Vupstroke) and the transients decay (Vdecay) were subsequently calculated and analyzed.
# Initially, electrophysiological profiles were obtained and analyzed from patch-clamp recordings and Ca^2+-imaging performed on 30- to 50-day-old single cells isolated from cardiogenic EBs.
# [2] = test system: Wnt/β-catenin pathway; experiment: Directed differentiation to ventricular cardiomyocytes with Wnt inhibition; assay type: cell-based, human
# From the text: (§1) As detailed in the following examples, cardiac differentiation was initiated by formation of embryoid bodies (EBs) in suspension culture from hESCs as exemplary stem cells, maintained in feeder-free, serum-free culture. […] In the first phase of the differentiation process (Stage 1; days 2-4.5), the cells were differentiated into primitive streak-mesendoderm and subsequently to cardiac mesoderm by the combinatorial activation of the BMP and Nodal signaling pathways. In the second phase (Stage 2; days 4.5-8) the inhibition of the Wnt/β-catenin pathway by the small molecule IWR-1^29 enhanced the differentiation of the cardiac progenitors to the ventricular cardiomyocyte lineage.
# For directed cell differentiation, undifferentiated hPSCs were digested into smaller clusters using Dispase (STEMCELL Technologies; 1 mg/ml for 8 minutes at 37° C.) and seeded onto Matrigel™-coated plates at 3×10^4 cells/ml in mTeSR™ 1 medium for 4 days until there was about 80-90% confluence on D0. To initiate cardiac differentiation, hPSCs were digested into single cell suspensions using Accutase (Invitrogen) and cultured in mTeSR™ 1 medium with Matrigel™ (40 μg/ml) with BMP-4 (1 ng/ml, Invitrogen) and Rho kinase inhibitor (ROCK) Inhibitor (10 μM; R&D) under a hypoxic condition with 5% O2. […] Cardiac mesodermal cells developed into functional contracting clusters could be detected as early as day 8. […]
# [3] = test system: hESCs; experiment: Embryoid body formation from dissociated hESCs; assay type: cell-based, human; settings: EB formation in suspension culture
# From the text: as §1
# [4] = test system: hPSC; settings: cited from earlier work
# [5] = test system: HES2-VCMs; settings: H2O2 100 μM, 30 minutes, 37° C.; ratio before stress 1.146
# Procedure: Mitochondrial membrane potential in HES2-VCMs was measured with the potential-sensitive dye JC-1 (Invitrogen). LV-MLC2v-Tdtomato-T2A-Zeo transduced and Zeo-selected HES2-VCMs (30- to 50-day-old) were incubated at 37° C. with 0.5 μM JC-1 in serum free DMEM medium for 15 minutes. To simulate metabolic oxidative stress, hES2-VCMs were treated with hydrogen peroxide (H2O2; 100 μM) for 30 minutes at 37° C., after which JC-1 orange and green fluorescence intensities were measured for mitochondrial membrane potential with a LSM Carl Zeiss 510 Meta microscope.
smiles,measurement,setting,value
Cn1c(=O)c2c(ncn2C)n(C)c1=O [caffeine],caffeine-induced Ca2+ flux (functional sarcoplasmic reticulum),[1],observed
CC(C)NCC(O)c1ccc(O)c(O)c1 (stereo not shown) [isoproterenol],chronotropic response (spontaneous AP and Ca2+ transient firings),"[1]; 30- to 50-day-old single cells, β-adrenergic stimulation",positive chronotropic response
same,Ca2+ transient amplitude (ionotropic response),"[1]; β-adrenergic stimulation, p>0.05",remained unchanged
O=C(Nc1cccc2cccnc12)c1ccc(N2C(=O)[C@@H]3[C@H](C2=O)[C@@H]2C=C[C@H]3C2)cc1 [IWR-1],differentiation of cardiac progenitors to the ventricular cardiomyocyte lineage,"[2]; Stage 2, days 4.5-8",enhanced
same,heterogeneity of the hESC-derived cardiomyocytes,[2]; timely inhibition of Wnt/β-catenin pathway,reduced
Cc1ccc2c(c1)C(=O)C1(O)CCN(c3ccccc3)C1=N2 (stereo not shown) [blebbistatin],EB formation efficiency,[3],significantly increased
same,dissociation-induced apoptosis of hESCs,[3],inhibited
COc1ccc(CCC(=O)Nc2nc3ccc(Cl)cc3s2)cc1OC [KY02111],hPSC-CM per hPSC,[4]; about 4.2×10^6 hPSC-CM from about 6×10^6 seeded per well,0.7 hPSC-CM per hPSC
same,yield of CM from hPSC differentiation,"[4]; serum- and xeno-free, four hiPSC lines, by inhibiting WNT signaling",up to 98%
"OO [H2O2, hydrogen peroxide]",JC-1 orange/green intensity ratio,[5],0.410
